Measured values reported in PubChem BioAssay (NCI).
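Assay format: 96-well plates, 48-hour exposure. TGI is the concentration that stops growth completely.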

What was measured:
Experiment in all cases: NCI tumour cell line growth inhibition, 48 h
[1] = tested on: NCI-H226 lung
[2] = tested on: SK-MEL-2 melanoma
[3] = tested on: SF-268 CNS
[4] = tested on: NCI-H522 lung
[5] = tested on: HS 578T breast
[6] = tested on: CCRF-CEM leukemia
[7] = tested on: MOLT-4 leukemia
[8] = tested on: K-562 leukemia
[9] = tested on: SW-620 colon
[10] = tested on: SNB-19 CNS
[11] = tested on: MCF7 breast
[12] = tested on: OVCAR-8 ovarian
[13] = tested on: COLO 205 colon
[14] = tested on: HCT-15 colon
[15] = tested on: MALME-3M melanoma
[16] = tested on: HL-60(TB) leukemia
[17] = tested on: OVCAR-5 ovarian
[18] = tested on: SK-OV-3 ovarian
[19] = tested on: A549 NSCLC
[20] = tested on: MDA-MB-231 breast
[21] = tested on: HCC-2998 colon
[22] = tested on: CAKI-1 renal
[23] = tested on: DU-145 prostate
[24] = tested on: HCT-116 colon
[25] = tested on: UO-31 renal
[26] = tested on: MDA-MB-435
[27] = tested on: NCI/ADR-RES ovarian
[28] = tested on: NCI-H23 lung
[29] = tested on: T-47D breast
[30] = tested on: SF-539 CNS
[31] = tested on: KM12 colon
[32] = tested on: UACC-62 melanoma
[33] = tested on: MDA-N
[34] = tested on: TK-10 renal
[35] = tested on: IGROV1 ovarian
[36] = tested on: HT29 colon
[37] = tested on: UACC-257 melanoma
[38] = tested on: OVCAR-3 ovarian
[39] = tested on: SF-295 CNS
[40] = tested on: M14 melanoma
[41] = tested on: NCI-H460 lung
[42] = tested on: SR leukemia
[43] = tested on: U251 CNS
[44] = tested on: ACHN renal
[45] = tested on: PC-3 prostate
[46] = tested on: SNB-75 CNS
[47] = tested on: A498 renal
[48] = tested on: SN12C renal
[49] = tested on: 786-0 renal
[50] = tested on: SK-MEL-28 melanoma
[51] = tested on: HOP-62 NSCLC
[52] = tested on: SK-MEL-5 melanoma
[53] = tested on: BT-549 breast
[54] = tested on: LOX IMVI melanoma
[55] = tested on: HOP-92 NSCLC
[56] = tested on: EKVX NSCLC
[57] = tested on: RPMI-8226 leukemia
[58] = tested on: OVCAR-4 ovarian
[59] = tested on: RXF 393 renal

Structure (SMILES): O=C(O)Cn1cc([N+](=O)[O-])c(=O)c2ccccc21
- TGI [1]: > 100 µM
- TGI [2]: > 100 µM
- TGI [3]: > 100 µM
- TGI [4]: > 100 µM
- TGI [5]: > 100 µM
- TGI [6]: > 100 µM
- TGI [7]: > 100 µM
- TGI [8]: > 100 µM
- TGI [9]: > 100 µM
- TGI [10]: > 100 µM
- TGI [11]: > 100 µM
- TGI [12]: > 100 µM
- TGI [13]: 33.7 µM
- TGI [14]: > 100 µM
- TGI [15]: > 100 µM
- TGI [16]: > 100 µM
- TGI [17]: > 100 µM
- TGI [18]: > 100 µM
- TGI [19]: > 100 µM
- TGI [20]: 32.9 µM
- TGI [21]: > 100 µM
- TGI [22]: > 100 µM
- TGI [23]: > 100 µM
- TGI [24]: > 100 µM
- TGI [25]: > 100 µM
- TGI [26]: > 100 µM
- TGI [27]: > 100 µM
- TGI [28]: > 100 µM
- TGI [29]: 32.8 µM
- TGI [30]: > 100 µM
- TGI [31]: > 100 µM
- TGI [32]: > 100 µM
- TGI [33]: > 100 µM
- TGI [34]: > 100 µM
- TGI [35]: > 100 µM
- TGI [36]: > 100 µM
- TGI [37]: > 100 µM
- TGI [38]: > 100 µM
- TGI [39]: > 100 µM
- TGI [40]: > 100 µM
- TGI [41]: > 100 µM
- TGI [42]: > 100 µM
- TGI [43]: > 100 µM
- TGI [44]: > 100 µM
- TGI [45]: > 100 µM
- TGI [46]: > 100 µM
- TGI [47]: > 100 µM
- TGI [48]: > 100 µM
- TGI [49]: > 100 µM
- TGI [50]: > 100 µM
- TGI [51]: > 100 µM
- TGI [52]: > 100 µM
- TGI [53]: > 100 µM

Structure (SMILES): O=C(O)C(Oc1nc(=S)[nH]c(=S)[nH]1)(c1ccc(Cl)cc1)c1ccc(Cl)cc1
- TGI [54]: > 100 µM
- TGI [1]: > 100 µM
- TGI [2]: > 100 µM
- TGI [3]: > 100 µM
- TGI [4]: > 100 µM
- TGI [5]: > 100 µM
- TGI [7]: > 100 µM
- TGI [8]: > 100 µM
- TGI [9]: > 100 µM
- TGI [10]: > 100 µM
- TGI [11]: > 100 µM
- TGI [12]: > 100 µM
- TGI [13]: > 100 µM
- TGI [55]: > 100 µM
- TGI [14]: > 100 µM
- TGI [15]: > 100 µM
- TGI [16]: > 100 µM
- TGI [17]: > 100 µM
- TGI [56]: > 100 µM
- TGI [18]: > 100 µM
- TGI [19]: > 100 µM
- TGI [20]: > 100 µM
- TGI [21]: > 100 µM
- TGI [22]: > 100 µM
- TGI [23]: > 100 µM
- TGI [24]: > 100 µM
- TGI [25]: > 100 µM
- TGI [26]: > 100 µM
- TGI [27]: > 100 µM
- TGI [28]: > 100 µM
- TGI [29]: > 100 µM
- TGI [30]: > 100 µM
- TGI [31]: > 100 µM
- TGI [32]: > 100 µM
- TGI [33]: > 100 µM
- TGI [34]: > 100 µM
- TGI [35]: > 100 µM
- TGI [36]: > 100 µM
- TGI [37]: > 100 µM
- TGI [38]: > 100 µM
- TGI [57]: > 100 µM
- TGI [39]: > 100 µM
- TGI [40]: > 100 µM
- TGI [41]: > 100 µM
- TGI [58]: > 100 µM
- TGI [42]: > 100 µM
- TGI [43]: > 100 µM
- TGI [44]: > 100 µM
- TGI [45]: > 100 µM
- TGI [46]: > 100 µM
- TGI [59]: > 100 µM
- TGI [47]: > 100 µM
- TGI [48]: > 100 µM
- TGI [49]: > 100 µM
- TGI [50]: > 100 µM
- TGI [51]: > 100 µM
- TGI [52]: > 100 µM
- TGI [53]: > 100 µM

Structure (SMILES): CC(=O)c1c2n(n(-c3ccccc3)c1=O)C(=O)c1nccnc1-2
- TGI [54]: > 100 µM
- TGI [1]: > 100 µM
- TGI [2]: > 100 µM
- TGI [3]: > 100 µM
- TGI [4]: > 100 µM
- TGI [5]: > 100 µM
- TGI [7]: > 100 µM
- TGI [8]: > 100 µM
- TGI [9]: > 100 µM
- TGI [10]: > 100 µM
- TGI [11]: > 100 µM
- TGI [12]: > 100 µM
- TGI [13]: > 100 µM
- TGI [55]: > 100 µM
- TGI [14]: > 100 µM
- TGI [15]: > 100 µM
- TGI [16]: > 100 µM
- TGI [17]: > 100 µM
- TGI [56]: > 100 µM
- TGI [18]: > 100 µM
- TGI [19]: > 100 µM
- TGI [20]: > 100 µM
- TGI [21]: > 100 µM
- TGI [22]: > 100 µM
- TGI [23]: > 100 µM
- TGI [24]: > 100 µM
- TGI [25]: > 100 µM
- TGI [26]: > 100 µM
- TGI [27]: > 100 µM
- TGI [28]: > 100 µM
- TGI [29]: > 100 µM
- TGI [30]: > 100 µM
- TGI [31]: > 100 µM
- TGI [32]: > 100 µM
- TGI [33]: > 100 µM
- TGI [35]: > 100 µM
- TGI [36]: > 100 µM
- TGI [37]: > 100 µM
- TGI [38]: > 100 µM
- TGI [57]: > 100 µM
- TGI [39]: > 100 µM
- TGI [40]: > 100 µM
- TGI [41]: > 100 µM
- TGI [58]: > 100 µM
- TGI [42]: > 100 µM
- TGI [43]: > 100 µM
- TGI [44]: > 100 µM
- TGI [45]: > 100 µM
- TGI [46]: > 100 µM
- TGI [59]: > 100 µM
- TGI [47]: > 100 µM
- TGI [48]: > 100 µM
- TGI [49]: > 100 µM
- TGI [50]: > 100 µM
- TGI [52]: > 100 µM
- TGI [53]: > 100 µM

Structure (SMILES): Cc1ccc(N=C2C(=Nc3ccc(C)cc3)N(c3ccc(C)cc3)C(=S)N2C(=O)c2ccccc2)cc1
- TGI [1]: > 100 µM
- TGI [2]: > 100 µM
- TGI [3]: > 100 µM
- TGI [4]: > 100 µM
- TGI [5]: > 100 µM
- TGI [7]: > 100 µM
- TGI [8]: > 100 µM
- TGI [9]: > 100 µM
- TGI [10]: > 100 µM
- TGI [11]: > 100 µM
- TGI [13]: > 100 µM
- TGI [55]: > 100 µM
- TGI [14]: > 100 µM
- TGI [15]: > 100 µM
- TGI [17]: > 100 µM
- TGI [56]: > 100 µM
- TGI [18]: > 100 µM
- TGI [19]: > 100 µM
- TGI [20]: > 100 µM
- TGI [21]: > 100 µM
- TGI [22]: > 100 µM
- TGI [23]: > 100 µM
- TGI [25]: > 100 µM
- TGI [26]: > 100 µM
- TGI [27]: > 100 µM
- TGI [28]: > 100 µM
- TGI [29]: > 100 µM
- TGI [30]: > 100 µM
- TGI [31]: > 100 µM
- TGI [32]: > 100 µM
- TGI [33]: > 100 µM
- TGI [34]: > 100 µM
- TGI [35]: > 100 µM
- TGI [36]: > 100 µM
- TGI [38]: > 100 µM
- TGI [57]: > 100 µM
- TGI [39]: 32.3 µM
- TGI [40]: > 100 µM
- TGI [41]: > 100 µM
- TGI [42]: > 100 µM
- TGI [43]: > 100 µM
- TGI [44]: > 100 µM
- TGI [45]: > 100 µM
- TGI [46]: 81.2 µM
- TGI [59]: > 100 µM
- TGI [48]: > 100 µM
- TGI [49]: > 100 µM
- TGI [50]: > 100 µM
- TGI [51]: > 100 µM
- TGI [52]: > 100 µM
- TGI [53]: > 100 µM
